# From PMC8316002, “Inhibition of Escherichia coli Lipoprotein Diacylglyceryl Transferase Is Insensitive to Resistance Caused by Deletion of Braun’s Lipoprotein” (Journal of Bacteriology, 2021)
# Experiments:
# Format in all cases: cell-based, E. coli
# MG1655 imp4213 = experiment: Sucrose gradient centrifugation, IM and OM separation; conditions: 1× MIC, 60 min
# Method: Bacterial inner and outer membranes were separated by isopycnic sucrose gradient centrifugation as described previously ([75]) and by the Hancock Laboratory (http://cmdr.ubc.ca/bobh/method/outer-membrane-preparation-one-step-sucrose-gradient-procedure/), with some modifications. Briefly, bacteria were grown in Luria broth at 37°C to mid-exponential phase (OD600 of 0.8 to 0.9) and then treated with 1× MIC of designated inhibitors for 1 h. Cells representing equivalents of an OD600 of 10 were harvested by centrifugation at 4,000 × g for 15 min, washed once, and resuspended in cold 10 mM Tris, pH 8.0, containing 20% (wt/vol) sucrose, cOmplete EDTA-free protease inhibitor cocktail (Roche), and 1,000 U/ml nuclease (Benzonase nuclease; EMD Millipore). The cell suspension was disrupted by two passages through an LV1 Microfluidizer (Microfluidics). Unbroken cells were removed by centrifugation at 4,000 × g, and membranes were collected by ultracentrifugation at 100,000 × g for 1 h and washed once with cold 10 mM Tris, pH 8.0. The final membrane preparation was resuspended in 10 mM Tris, pH 8.0, containing 10% sucrose, cOmplete EDTA-free protease inhibitor cocktail (Roche), and 1,000 U/ml nuclease and then applied to the top of the sucrose gradients (73%, 60%, and 20%). The loaded gradients were spun at 39,000 rpm for 22 h at 4°C in a Beckman SW 41 Ti rotor. Fractions were collected from the top and analyzed by SDS-PAGE and immunoblotting with appropriate antibodies.
# CFT073 imp4213 [1] = experiment: Western blot of Lpp forms; conditions: 0.5× MIC, 30 min
# Method: Bacterial cell samples normalized for equivalent OD600 and resuspended in BugBuster lysis buffer (Fischer Scientific) with the addition of sample buffer (LI-COR), and proteins were separated by SDS-PAGE using 16% Tricine protein gels or NuPAGE 4% to 20% bis-Tris gels (Thermo Fisher Scientific), transferred to nitrocellulose membranes using the iBlot 2 dry blotting system (Invitrogen), and blocked using LI-COR blocking buffer for 30 min. Unless stated otherwise, loading buffer with reducing agents was added and samples were not boiled prior to SDS-PAGE. For the sucrose gradient centrifugation, samples were boiled prior to running the SDS-PAGE. Primary antibodies were used at a final concentration of 1 μg/ml with some exceptions: rabbit anti-Lpp polyclonal antibody (0.1 μg/ml), murine anti-Pal 6D7 antibody (0.5 μg/ml), rabbit anti-GroEL antibody (1:10,000 final dilution), and rabbit anti-OmpA antibody (1:50,000 final dilution). The secondary antibodies were all obtained from LI-COR and used as per manufacturer’s instructions. Images were collected using the Odyssey CLx imaging system (LI-COR) and analyzed by Image Studio Lite.
# CFT073 imp4213 [2] = experiment: SDS fractionation (PAP and non-PAP) of Lpp and Pal; conditions: 0.5× MIC, 60 min, PAP fraction
# Method: Purification of PGN-associated proteins (PAP) was performed according to published methods ([17], [40], [41]) with some modifications. Briefly, bacteria were harvested in mid-exponential phase for treatment and then subjected to PAP extraction by resuspending the cell pellets from an OD (A600) of 10 in 6 ml of PAP extraction buffer containing 2% (wt/vol) SDS in 100 mM Tris-HCl (pH 8.0) with 100 mM NaCl, 10% glycerol, and cOmplete, mini, EDTA-free protease inhibitor cocktail (Sigma-Aldrich). After 60 min at RT, the extraction was subjected to centrifugation at 100,000 × g for 60 min at 22°C, and the pellet, containing PGN and associated proteins, was washed once with the same PAP extraction buffer with centrifugation at 100,000 × g for 30 min and resuspended in 200 μl of PAP extraction buffer (referred to as the SDS-insoluble on PAP fraction). The supernatant containing the SDS-soluble fraction was aliquoted and frozen (referred to as non-PAP fraction). Both fractions were treated with equal volumes of BugBuster buffer prior to the addition of sample buffer for Western immunoblotting as described above. It should be noted that the final PAP fractions were ∼30-fold more concentrated than the non-PAP fractions.
# cells expressing lppΔK = experiment: Time-kill, CFT073 imp4213 Δlpp complemented with lpp or lppΔK; conditions: 12.5 μM G2824 or 3.2 μM globomycin; CFU; lppΔK (unable to link to PGN) versus WT lpp
# Text: To determine if loss of PGN linkage of Lpp leads to increased G2824 bactericidal activity, we treated CFT073 imp4213 Δlpp cells complemented with either WT lpp or a mutant form that is unable to covalently link to PGN (lppΔK). Using the previously described SDS fractionation protocol, we confirmed that while WT Lpp localized to both PAP and non-PAP fractions, the LppΔK mutant was primarily detected in the non-PAP fraction (see Fig. S5A). As we noted earlier, PGN-linked DGPLP (§) and other PGN-linked Lpp forms (†) were primarily detectable in the PAP fraction (Fig. S5A).
# Unless stated otherwise, E. coli cells were grown in Luria-Bertani (LB) medium (0.5% yeast extract, 1% tryptone, 0.5% NaCl) at 37°C. […] Growth of MG1655 inducible deletion strains was measured by culturing in the presence of 2-fold dilutions of arabinose (starting arabinose concentrations for CFT073 and MG1655 inducible deletion strains were 4% and 0.8%, respectively). While 2% arabinose was sufficient for WT growth of MG1655 Δlgt, 4% arabinose was used for CFT073 Δlgt based on comparing its growth to that of WT CFT073 as measured by CFU. OD600 growth measurements were performed using an EnVision 2101 multilabel reader plate reader (PerkinElmer) linked with Echo liquid handler (Labcyte). […] Bacterial viability at different time points during the treatment was measured by enumerating CFU. […]
smiles,measurement,setting,value
CCCCCC[C@H]1OC(=O)CNC(=O)[C@H]([C@H](C)O)NC(=O)[C@H](CO)NC(=O)[C@H]([C@H](C)CC)NC(=O)[C@H](CC(C)C)N(C)C(=O)[C@@H]1C [Globomycin],IM accumulation of OM lipoproteins and OMPs,MG1655 imp4213,IM accumulation of OM lipoproteins (Pal and BamB) and OMPs (BamA and OmpA)
same,IM accumulation of PGN-linked Lpp,MG1655 imp4213,"significant IM accumulation of PGN-linked Lpp, including DGPLP"
same,localization of OmpA,MG1655 imp4213,"mislocalization of the β-barrel protein, OmpA"
same,IM total protein and OM density,MG1655 imp4213; versus untreated,increases in total protein levels in the IM fraction and a decrease in OM density
same,accumulation of Lpp forms,CFT073 imp4213 [1],accumulation of DGPLP and other PGN-linked Lpp forms
same,levels of PGN-linked Lpp and Pal,CFT073 imp4213 [2],accumulation of PGN-linked DGPLP (§) and other PGN-linked Lpp forms (†)
same,effect of lppΔK on bactericidal killing,cells expressing lppΔK,completely resistant
